According to publication PMC10820135, “Pharmacokinetic, Tissue Distribution, Metabolite, and Toxicity Evaluation of the Matrine Derivative, (6aS, 10S, 11aR, 11bR, 11cS)-10-Methylaminododecahydro-3a, 7a-Diaza-benzo (de) Anthracene-8-thione” (Molecules, 2024):

Experiments:
[1] = Metabolite profiling of MASM in rats by UHPLC-QQQ-MS/MS; format: in vivo, Sprague-Dawley rats; conditions: rat, MASM i.p. 80 mg/kg, i.g. 60 mg/kg
Description: The identification of the in vivo metabolites of MASM was conducted using UHPLC-QQQ-MS/MS combined with standard references and deuterium-labeled MASM. The findings are presented in Table 2, while the proposed primary metabolic pathway of MASM in rats is depicted in Figure 4. To provide a comprehensive understanding of the metabolite identification process, three representative metabolites of MASM are presented, with their identification relying on primary and secondary mass spectrometry data, standard references, and deuterium-labeled MASM. The remaining metabolites are detailed in Supplementary File S4. For instance, the identification of the metabolite, M1, as a demethylation product of MASM was accomplished through the utilization of MS, MS/MS data, and the standard reference. […] Moreover, the identification of M1 as the demethylation metabolite of MASM was accomplished using the standard reference synthesized in our laboratory. […] Secondly, the metabolite, M2, of MASM was identified as the dehydrogenation product of MASM through the utilization of MS and MS/MS data. […] Consequently, M2 was identified as a dehydrogenation metabolite of M1. Thirdly, through the utilization of MS, MS/MS data, and deuterium-labeled MASM, the metabolite, M8, of MASM was determined to be a dehydrogenation product of MASM. […] The major MS/MS fragment ions of M8 were found at m/z 111.92, 178.77, 150.16, and 135.85, which aligned with the characteristic cleavage pattern of matrine. Additionally, our lab synthesized deuterium-labeled MASM to further support our proposed structure. […] Consequently, M8 was identified as a dehydrogenation metabolite of MASM. The EIC, MS/MS spectrum of M8 and deuterium-labeled MASM are all depicted in Figure 5C.
UHPLC analysis was performed using a Thermo Accela AS system, employing an ACQUITY UPLC®BEH C18 (Waters Corporation, Wexfords, Ireland) (1.7 µm, 2.1 × 100 mm) column and a binary solvent system consisting of water containing 0.1% formic acid as mobile phase A and acetonitrile as mobile phase B. For pharmacokinetic evaluation, the gradient elution was set as follows: 97% A from 0 to 2 min, 97–70% A from 2 to 3 min, 70–20% A from 3 to 3.5 min, 20% A from 3.5 to 3.6 min, 20–97% A from 3.6 to 3.7 min, and 97% A from 3.7 to 5 min. For the metabolic test, the gradient elution in full scan mode was set as follows: 97% A from 0 to 2 min, 97–70% A from 2 to 4 min, 70–20% A from 4 to 6 min, 20% A from 6 to 7 min, 20–97% A from 7 to 8 min, and 97% A from 8 to 10 min. The flow rate was 0.2 mL/min, with a temperature of 40 °C maintained and an injection volume of 5 μL. The QQQ-MS/MS analysis was conducted using a Thermo TSQ QUANTUM ACCESS MAX system equipped with an electrospray ionization (ESI) source. The spray voltages were set at 4.0 kV and 2.5 kV for positive and negative ion modes, respectively; capillary and vaporizer temperatures were 320 °C and 350 °C, respectively; sheath and aux gas pressures were 35 and 10 psi, respectively.
Seventy Sprague-Dawley rats were fasted overnight before dosing, with free access to water. Subsequently, the rats were randomly and equally divided into 7 groups: the control groups received 3 different routes of administration: intravenous, intraperitoneal, and intragastric (NS, saline 1 mL/100 g); MASM intraperitoneal group (A, i.p. 80 mg/kg), MASM intragastrical group (B, i.g. 60 mg/kg), MASM intravenous group (C, i.v. 15 mg/kg), and DMASM intragastrical group (D, i.g. 60 mg/kg). It is important to note that the recommended clinical dose of matrine injection is 0.15 g, which is equivalent to a dosage of 15 mg/kg in rats. MASM was administered via tail vein injection at a dosage of 1 mL/100 g for intravenous dosing, while for intraperitoneal dosing, MASM was injected at the lower-right side of the abdomen of rats. […]

[2] = cited from earlier work
mice = conditions: cited from earlier work

## CNC1CC(S)N2CC3CCCN4CCCC(C34)C2C1 (stereo not shown) [M6]
[1]
  Method of Administration after which the metabolite of MASM was found: i.p. i.g.

## O=C1CCC[C@@H]2[C@H]3CCC[N+]4([O-])CCC[C@@H](CN12)[C@@H]34 (stereo partly shown) [M5, oxymatrine]
[1]
  Method of Administration after which the metabolite of MASM was found: i.p. i.g.

## CN[C@@H]1CC(=S)N2CC3CCCN4C=CCC(C34)C2C1 (stereo partly shown) [M8]
[1]
  Method of Administration after which the metabolite of MASM was found: i.g.

## O=C1C=CC[C@@H]2[C@H]3CCC[N+]4([O-])CCC[C@@H](CN12)[C@@H]34 (stereo partly shown) [M4, oxysophocarpine]
[1]
  Method of Administration after which the metabolite of MASM was found: i.p. i.g.

## NC1CC(=S)N2CC3CCCN4CCCC(C34)C2C1 (stereo not shown) [M7]
[1]
  Method of Administration after which the metabolite of MASM was found: i.p. i.g.

## O=CNC1CC(=S)N2CC3CCCN4CCCC(C34)C2C1 (stereo not shown) [M10]
[1]
  Method of Administration after which the metabolite of MASM was found: i.g.

## O=C1CCC[C@@H]2[C@H]3CCCN4CCC[C@@H](CN12)[C@@H]34 [matrine]
[2]; after oral administration, ref Zhang et al. 11
  time of peak plasma concentration of matrine: 2.1 h
[2]; reported value, ref Yang et al. 12
  bioavailability of matrine: 18.5%
mice
  LD50 of matrine: 83.21 mg/kg

## OCNC1CC(=S)N2CC3CCCN4CCCC(C34)C2C1 (stereo not shown) [M9]
[1]
  Method of Administration after which the metabolite of MASM was found: i.g.
